Test results: US7026289B2, “Method and compositions for treating hyperlipidemia and other conditions” (Societe de Conseils de Recherches et d'Applications …, priority 1997, dated 2006)
Positions of bridges follow the written chain, without caps; N, C: chain ends. Non-standard residues stand in square brackets, D forms with d. Residues, ends and D or L forms follow the SMILES beside them.

Legend:
[1] = system: fatty (fa/fa) Zucker rats; assay: Reduction of glycerol and triglycerides, chronic treatment in obese rats; format: in vivo, rat; conditions: for plasma glycerol / plasma triglycerides: 3 mg/kg s.c. twice a day, 6 days, vs saline
Source text: The obese (fa/fa) Zucker and its derivative in the Zucker diabetic fatty (ZDF/Drt-fa) are excellent models of diabetes-induced dyspilidemia (Shafrir, E., Diabetes/Metabolism Rev. 8:179–208 (1992); Peterson, R. G., et al., ILAR News 32:16–19 (1990)). The animals develop progressive hypertriglyceridemia and hypercholesterolemia.
Eleven male fatty Zucker rats weighing about 450 grams were randomly divided into 2 groups and their initial body wights recorded. The animals were housed in pairs in a normal 12 hour light/dark cycle at 20–21 C and fed a standard laboratory rat diet (Beekay rat and mouse diet, Bantin & Kingman, Hull, Humberside, U.K.) overnight ad libitum.
For the group assigned to receive drug treatment, the rats received BIM-23268C at 3 mg/kg, by subcutaneous injection twice a day at 10:00 a.m. and 5:00 p.m. The other group was treated with a subcutaneous injection of 0.1 ml/100 g of saline twice a day at 10:00 a.m. and 5:00 p.m. The animals were subjected to the BIM-23268 or saline treatment for a total of six days.
On the last day of treatment (day 6), food was removed at 5:00 p.m. and the rats fasted overnight. At 9:00 a.m. the next day, the animals were subjected to a glucose challenge, given as a 0.8 gram/kg of glucose orally. Periodic 400 ul of blood samples were taken from the tail vein (Peterson, R. G., ILAR News 32:16–19 (1990)) at 60 min. and 30 min. before, and at 30, 60, 90, and 120 min. after the administration of the glucose challenge (08. gram/kg orally). Aprotinin (Traysylol, Bayer UK, Hayward's Heath, W. Sussex, U.K.) and heparin (Sigma Chemical Co., Poole, Dorset, U.K.) were added to the blood samples to a final concentration of 400 KIU/ml and 100 units/ml, respectively. Plasma fractions were prepared from these samples by centrifugation at 400×G in a microfuge, for the estimation of triglycerides and glycerol. Samples were then stored at −80° C. until assayed.
Plasma glycerol and triglycerides were determined using the Sigma Enzymatic (Tinder) calorimetric assay kit (Cat #337-B, Sigma Chemical Co., Poole, Dorset, U.K.) and measuring absorbance at 540 nm in a spectrophotometer.

hSSTR-1 = target: T1, hSSTR-1 (Homo sapiens, UniProt P30872); assay: Somatostatin receptor binding assay, [125I-Tyr11] somatostatin-14, CHO-K1 membranes; conditions: displacement of 0.05 nM [125I-Tyr11] somatostatin-14, transfected CHO-K1 membranes
T1 construct: expressed in transfected cells
Method: Restriction endonucleases are available from New England Biolabs (Beverly, Mass.). […] Other mammalian expression vectors include pcDNA1/Amp (Invitrogen, Sandlesy, Calif.). The expression plasmids were introduced into the suitable bacterial host, E. Coli HB101 (Stratagene, La Jolla, Calif.) and plasmid DNAs, for transfection, were prepared on Cesium Chloride gradients.
CHO-K1 (ovary, Chinese hamster) cells were obtained from ATCC (ATCC No. CCL 61). The cells were grown and maintained in Ham's F12 media (Gibco BRL, Grand Island, N.Y.) supplemented with 10% fetal bovine serum under standard tissue culture conditions. […] DNA mediated transfection was carried out using the calcium phosphate co-precipitation method (Ausubel, F. M., et al., Current Protocols in Molecular Biology, John Wiley & Sons, 1987). The plasmid pRSV-neo (ATCC; ATCC No. 37198) was included as a selectable marker at 1/10 the concentration of the expression plasmid. CHO-K1 clonal cell lines that have stably inherited the transfected DNA were selected for growth in Ham's F12 media containing 10% fetal bovine serum and 0.5 mg/ml of G418 (Sigma). The cells were ring-cloned and expanded in the same media for analysis.
Transfected cell lines expressing the human SSTR receptors were clonally expanded in culture and used in the following SSTR binding protocol.
The resulting supernatant was decanted and discarded. […]

[2] = samples 30 and 60 min before oral glucose challenge
[3] = through the 2-hour test period after oral glucose challenge

T1 sequence (P30872 whole entry): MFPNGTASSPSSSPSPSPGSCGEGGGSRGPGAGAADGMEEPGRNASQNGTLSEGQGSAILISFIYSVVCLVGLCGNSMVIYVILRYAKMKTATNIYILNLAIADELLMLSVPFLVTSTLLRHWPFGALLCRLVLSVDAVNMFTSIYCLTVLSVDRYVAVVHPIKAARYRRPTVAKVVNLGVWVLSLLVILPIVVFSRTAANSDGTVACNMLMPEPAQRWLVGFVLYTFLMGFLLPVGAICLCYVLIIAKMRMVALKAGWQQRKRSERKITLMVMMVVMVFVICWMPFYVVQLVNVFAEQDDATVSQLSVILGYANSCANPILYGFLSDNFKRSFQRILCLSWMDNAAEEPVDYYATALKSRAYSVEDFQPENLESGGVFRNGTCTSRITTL

Ki (hSSTR-1) | SMILES | plasma glycerol [1, 2] | plasma triglycerides [1, 2] | plasma glycerol [1, 3] | plasma triglycerides [1, 3] | hypertriglyceridemia ([1]; 6-day treatment period at the prescribed dose (3 mg/kg s.c. twice a day))
 | C[C@@H](O)[C@@H]1NC(=O)[C@H](CCCCN)NC(=O)[C@@H](Cc2c[nH]c3ccccc23)NC(=O)[C@H](Cc2ccccc2)NC(=O)[C@H](Cc2ccccc2)NC(=O)[C@@H](N)CSSC[C@@H](C(N)=O)NC(=O)[C@H](Cc2ccccc2)NC1=O [BIM-23268, H-Cys-Phe-Phe-D-Trp-Lys-Thr-Phe-Cys-NH2] (H-CFF[dW]KTFC-NH2; disulfide 1-8) | significantly lowered | significantly lowered | significantly lower | significantly lower | effective in reducing hypertriglyceridemia
151 nM | C[C@@H](O)[C@@H]1NC(=O)[C@H](CCCCN)NC(=O)[C@@H](Cc2c[nH]c3ccccc23)NC(=O)[C@H](Cc2ccc(O)c(I)c2)NC(=O)[C@H](Cc2ccccc2)NC(=O)[C@@H](N)CSSC[C@@H](C(N)=O)NC(=O)[C@H](Cc2ccccc2)NC1=O [BIM-23313, H-Cys-Phe-Tyr(I)-D-Trp-Lys-Thr-Phe-Cys-NH2] |  |  |  |  | 
